Reference: article PMC8588467, “Rational Design 2-Hydroxypropylphosphonium Salts as Cancer Cell Mitochondria-Targeted Vectors: Synthesis, Structure, and Biological Properties” (Molecules, 2021)

Legend:
[1] = system: T98G glioblastoma cell line; assay: MTT cytotoxicity, T98G; assay type: cell-based, human; details: for IC50: Homo sapiens, T98G, MTT, mean ± SD, triplicate; for SI T98G: IC50 normal cells (WI38) / IC50 cancer cells, ns = no selectivity
[2] = system: HuTu 80 (human duodenal adenocarcinoma); assay: MTT cytotoxicity, HuTu 80; assay type: cell-based; details: for IC50: Homo sapiens, HuTu80, MTT, mean ± SD, triplicate; for SI HuTu 80: IC50 normal cells (WI38) / IC50 cancer cells, ns = no selectivity
HuTu-80 cells [3] = assay: Intracellular ROS production, CellROX Deep Red flow cytometry; assay type: cell-based, human; details: for CellROX Deep Red fluorescence intensity (ROS production): control 600; for ROS generation: compared to 3a and 3b and control (untreated cells)
Excerpt: Increasing the production of reactive oxygen species (ROS) by compounds characterizes the mitochondrial apoptotic pathway. Mitochondria are a potential source and target of ROS. ROS lead to disruption of mitochondrial functions and, as a consequence, to irreversible cell damage. In this regard, the effect of test compounds in HuTu-80 cells on ROS production, using flow cytometry analysis and CellROX® Deep Red flow cytometry kit was investigated. Data presented in Figure 7 show a significant increase in CellROX® Deep Red fluorescence intensity. This indicates an increase in ROS production in the presence of the tested compounds.
ROS generation was investigated using flow cytometry assay and CellROX® Deep Red flow cytometry kit. For this HuTu 80 cells were harvested at 2000 rpm for 5 min and then washed twice with ice-cold PBS, followed by resuspension in 0.1 mL of medium without FBS, to which was added 0.2 μL of Cell ROX® Deep Red and incubated at 37 °C for 30 min After three times washing the cells and suspending them in PBS, the production of ROS in the cells was immediately monitored using flow cytometer Guava easy Cyte, MERCK, NJ, USA).

[4] = system: WI38 (diploid human embryo lung); assay: MTT cytotoxicity, normal cells WI38; assay type: cell-based; details: Homo sapiens, WI-38, MTT; mean ± SD, triplicate; read-out: WI38 IC50 (normal cell line)
[5] = system: MCF-7 (human breast adenocarcinoma); assay: MTT cytotoxicity, MCF-7; assay type: cell-based; details: for IC50: Homo sapiens, MCF7, MTT, mean ± SD, triplicate; for SI MCF-7: IC50 normal cells (WI38) / IC50 cancer cells, ns = no selectivity
HuTu-80 cells [6] = assay: Mitochondrial membrane potential, JC-10 flow cytometry; assay type: cell-based, human; details: for % cells with J-aggregate (red, high membrane potential) / % cells with J-monomer (green, decreased membrane potential): JC-10; for effect on mitochondrial membrane potential: more pronounced with increase of concentration up to IC50
Excerpt: Apoptosis induction by 3a, b, k, j and 4c through the mitochondrial pathway and HuTu-80 cell line was studied by flow cytometry using the fluorescent dye JC-10 from the Mitochondria Membrane Potential Kit. JC-10 accumulated in the mitochondrial matrix and formed aggregates (J-aggregate) with red fluorescence in normal cells with a high mitochondrial membrane potential. The membrane potential decreased in apoptotic cells. JC-10 started to diffuse out from the mitochondria and converts to the monomeric form (J-monomer) and emits green fluorescence. This is recorded with a flow cytometer. […] The process became more pronounced with an increase of 3a, b, 3k, j and 4c concentrations up to IC50 (Figure 5 and Figure 6).
Cells were harvested at 2000 rpm for 5 min and then washed twice with ice-cold PBS, followed by resuspension in JC-10 (10 µg/mL) and incubation at 37 °C for 10 min. After the cells were rinsed three times and suspended in PBS, the JC-10 fluorescence was observed by flow cytometry (Guava easy Cyte, MERCK, NJ, USA).

[7] = system: A549 (human lung carcinoma); assay: MTT cytotoxicity, A549; assay type: cell-based; details: for IC50: Homo sapiens, A549, MTT, mean ± SD, triplicate; for SI A549: IC50 normal cells (WI38) / IC50 cancer cells, ns = no selectivity
[8] = system: PC3 (human prostate adenocarcinoma); assay: MTT cytotoxicity, PC3; details: for IC50: Homo sapiens, read-out: IC50 PC3, MTT, mean ± SD, triplicate; for SI PC3: IC50 normal cells (WI38) / IC50 cancer cells, ns = no selectivity
[9] = system: M-HeLa (human cervix epitheloid carcinoma); assay: MTT cytotoxicity, M-HeLa; assay type: cell-based; details: for IC50: Homo sapiens, M-HeLa, MTT, mean ± SD, triplicate; for SI M-HeLa: IC50 normal cells (WI38) / IC50 cancer cells, ns = no selectivity
HuTu-80 cells [10] = assay: Induction of apoptosis, annexin V/propidium iodide flow cytometry; assay type: cell-based, human; details: IC50/2, 48-h incubation
Procedure: Apoptosis is one of the most significant mechanisms used for screening new anti-cancer agents. The apoptosis-inducing effect was carried out on lead compounds 3a, b, k, j and 4c showing high selectivity against HuTu-80 cells. The studies were carried out by flow cytometry at concentrations IC50/2 and IC50 (Figure 4). […] The percentage of apoptotic cells in early and late phases was slightly changed with increase compound concentration up to IC50.
HuTu 80 cells at 1 × 10^6 cells/well in a final volume of 2 mL were seeded into six-well plates. After 48 h of incubation, various concentrations of compounds 3a,b and 3k were added to wells.
The cells were harvested at 2000 rpm for 5 min and, then, washed twice with ice-cold PBS, followed by resuspension in binding buffer. Next, the samples were incubated with 5 μL of annexin V-Alexa Fluor 647 (Sigma–Aldrich, St. Louis, MO, USA) and 5 μL of propidium iodide for 15 min at room temperature in the dark. Finally, the cells were analyzed by flow cytometry (Guava easy Cyte, MERCK, Rahway, NJ, USA) within 1 h. The experiments were repeated three times.

human cancer cell lines = assay: MTT cytotoxicity, summary statements over several cell lines; assay type: cell-based

| Compound | IC50 [1] | SI T98G [1] | IC50 [2] | SI HuTu 80 [2] | CellROX Deep Red fluorescence intensity (ROS production) (HuTu-80 cells [3]; IC50, 48 h) | CellROX Deep Red fluorescence intensity (ROS production) (HuTu-80 cells [3]; IC50/2, 48 h) | IC50 [4] | IC50 [5] | SI MCF-7 [5] | % cells with J-aggregate (red, high membrane potential) (HuTu-80 cells [6]; IC50, 48 h) | % cells with J-monomer (green, decreased membrane potential) (HuTu-80 cells [6]; IC50, 48 h) | % cells with J-aggregate (red, high membrane potential) (HuTu-80 cells [6]; IC50/2, 48 h) | % cells with J-monomer (green, decreased membrane potential) (HuTu-80 cells [6]; IC50/2, 48 h) | effect on mitochondrial membrane potential (HuTu-80 cells [6]) | IC50 [7] | SI A549 [7] | IC50 [8] | SI PC3 [8] | IC50 [9] | SI M-HeLa [9] | other results |
| --- | --- | --- | --- | --- | --- | --- | --- | --- | --- | --- | --- | --- | --- | --- | --- | --- | --- | --- | --- | --- | --- |
| OC(CCl)C[P+](c1ccccc1)(c1ccccc1)c1ccccc1 (stereo not shown) [3a, (3-Chloro-2-hydroxypropyl)triphenylphosphonium trifluoromethanesulfonate] | 64.3 ± 5.3 µM | ns | 10.1 ± 0.8 µM | 4 | 1500 | 1000 | 37.5 ± 3.1 µM | 56.1 ± 4.5 µM | ns | 39.4% | 60.6% | 40.7% | 59.2% | decrease the mitochondrial membrane potential | 64.4 ± 4.9 µM | ns | 45 ± 3.6 µM | ns | 66.7 ± 5.5 µM | ns | apoptosis induction (HuTu-80 cells [10]): actively induce apoptosis |
| OC(CBr)C[P+](c1ccccc1)(c1ccccc1)c1ccccc1 (stereo not shown) [3b, (3-Bromo-2-hydroxypropyl)triphenylphosphonium trifluoromethanesulfonate] | 56 ± 4.5 µM | ns | 3 ± 0.1 µM | 5 | 1580 | 1200 | 13.8 ± 1.1 µM | 34 ± 2.6 µM | ns | 48.1% | 51.9% | 54.5% | 45.5% | decrease the mitochondrial membrane potential | > 100 µM | ns | 23.3 ± 1.9 µM | ns | 30.1 ± 2.4 µM | ns | apoptosis induction (HuTu-80 cells [10]): actively induce apoptosis |
| CCCCCCCCCCOCC(O)C[P+](c1ccccc1)(c1ccccc1)c1ccccc1 (stereo not shown) [3j, (3-(Decyloxy)-2-hydroxypropyl)triphenylphosphonium trifluoromethanesulfonate] | 1.7 ± 0.1 µM | 2 | 0.5 ± 0.03 µM | 6.2 | 3700 | 2500 | 3.1 ± 0.2 µM | 2.9 ± 0.2 µM | 1.1 | 50.1% | 48.2% | 89.6% | 10.4% | decrease the mitochondrial membrane potential | 3.7 ± 0.3 µM | ns | 0.6 ± 0.05 µM | 5.2 | 1.1 ± 0.09 µM | 3 | anti-cancer activity against the HuTu 80 cell line relative to doxorubicin ([2]; words): comparable to doxorubicin activity; ROS generation (HuTu-80 cells [3]): most active to generate ROS; cytotoxic effect against the PC3 line relative to doxorubicin ([8]; words): two times higher than doxorubicin; apoptosis induction (HuTu-80 cells [10]): actively induce apoptosis; IC50 (human cancer cell lines; Homo sapiens, HuTu80, lines other than HuTu 80 and PC3, read-out: IC50 concentration values against other human cancer lines): 1.1 to 3.7 µM |
| CCCCCCCCCCCCCCCC(=O)OCC(O)C[P+](c1ccccc1)(c1ccccc1)c1ccccc1 (stereo not shown) [3k, (2-Hydroxy-3-palmitoyloxy-propyl)triphenylphosphonium trifluoromethanesulfonate] | 55.8 ± 4.7 µM | ns | 3.5 ± 0.3 µM | 5 | 3800 | 2000 | 16.2 ± 1.3 µM | 30.5 ± 2.5 µM | ns | 26.2% | 73.8% | 35% | 65% | decrease the mitochondrial membrane potential | 54.7 ± 4.4 µM | ns | 25 ± 2 µM | ns | 40.3 ± 3.5 µM | ns | ROS generation (HuTu-80 cells [3]): most active to generate ROS; apoptosis induction (HuTu-80 cells [10]): actively induce apoptosis |
| COc1cccc2c1C(=O)c1c(O)c3c(c(O)c1C2=O)C[C@@](O)(C(=O)CO)C[C@@H]3O[C@H]1C[C@H](N)[C@H](O)[C@H](C)O1 [Dox, doxorubicin, reference compound] | 2 ± 0.1 µM | ns | 0.2 ± 0.01 µM | 4 |  |  | 0.8 ± 0.07 µM | 0.4 ± 0.03 µM | 2 |  |  |  |  |  | 0.7 ± 0.5 µM | 1.1 | 1.4 ± 0.1 µM | ns | 2.1 ± 0.1 µM | ns | selectivity relative to the leading compounds (human cancer cell lines): significantly inferior to the leading compounds in selectivity |
